Test results as given in ChEMBL document CHEMBL5154908, “Design, Synthesis, and Biological Characterization of Inhaled p38α/β MAPK Inhibitors for the Treatment of Lung Inflammatory Diseases” (J Med Chem, 2022).
≈ marks a conversion by molar mass, not a printed value.

Columns and labels:
Rattus norvegicus [1] = assay: Antiinflammatory activity against LPS-induced Sprague-Dawley rat inflammatory model assessed as inhibition of neutrophil cells release in BALF at 0.1 mg/kg, IT preincubated for 2 hrs followed by LPS-stimulation and measured after 4 hrs relative to control; assay type: functional; set-up: scale not given: the % may be the effect or the level left; settings: time 6 hrs
Rattus norvegicus [2] = assay: Antiinflammatory activity against LPS-induced Sprague-Dawley rat inflammatory model assessed as inhibition of neutrophil cells release in BALF at 0.3 mg/kg, IT preincubated for 2 hrs followed by LPS-stimulation and measured after 4 hrs relative to control; assay type: functional; set-up: scale not given: the % may be the effect or the level left; settings: time 6 hrs
[3] = target: T1, Mitogen-activated protein kinase 14 (Homo sapiens, UniProt Q16539); assay: Inhibition of human recombinant full length GST-tagged p38alpha expressed in Escherichia coli preincubated for 2 hrs followed by ATP addition and measured after 1 hr by Alpha screen assay
[4] = Selectivity index, ratio of drug concentration in Sprague-Dawley rat lung homogenate to IC50 for human p38alpha; assay type: tissue-based; settings: tissue homogenate
[5] = target: T2, Mitogen-activated protein kinase 13 (Homo sapiens, UniProt O15264); assay: Inhibition of recombinant human full length His-tagged p38delta expressed in baculovirus expression system preincubated for 2 hrs followed by ATP addition and measured after 1 hr by Alpha screen assay
T2 sequence (O15264 whole entry): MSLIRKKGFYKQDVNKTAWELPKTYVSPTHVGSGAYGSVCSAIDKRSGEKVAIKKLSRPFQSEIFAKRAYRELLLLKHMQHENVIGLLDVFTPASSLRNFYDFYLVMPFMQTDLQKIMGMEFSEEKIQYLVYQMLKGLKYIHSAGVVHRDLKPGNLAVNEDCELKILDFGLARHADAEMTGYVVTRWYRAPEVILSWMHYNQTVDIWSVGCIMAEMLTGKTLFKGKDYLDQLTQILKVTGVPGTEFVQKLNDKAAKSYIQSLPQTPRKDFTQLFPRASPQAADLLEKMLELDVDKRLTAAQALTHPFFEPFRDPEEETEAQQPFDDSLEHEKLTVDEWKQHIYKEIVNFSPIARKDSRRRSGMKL

[6] = Cmax in Sprague-Dawley rat plasma at 0.3 mg/kg, IT measured after 0.8 hrs by LC/MS/MS analysis; assay type: ADME, organism-based; set-up: time 0.8 hrs, dose 0.3 mg/kg, route it
[7] = Protein binding in rat lung homogenate at 10 uM incubated for 4 hrs by LC/MS/MS analysis; assay type: ADME, tissue-based; settings: read-out: PB (converted)
[8] = Solubility of the compound at >=1 mg/ml measured after 30 mins by HPLC analysis; assay type: physicochemical
[9] = target: T3, Mitogen-activated protein kinase 12 (Homo sapiens, UniProt P53778); assay: Inhibition of recombinant human full length His-tagged p38gamma expressed in baculovirus expression system preincubated for 2 hrs followed by ATP addition and measured after 1 hr by Alpha screen assay
T3 sequence (P53778 whole entry): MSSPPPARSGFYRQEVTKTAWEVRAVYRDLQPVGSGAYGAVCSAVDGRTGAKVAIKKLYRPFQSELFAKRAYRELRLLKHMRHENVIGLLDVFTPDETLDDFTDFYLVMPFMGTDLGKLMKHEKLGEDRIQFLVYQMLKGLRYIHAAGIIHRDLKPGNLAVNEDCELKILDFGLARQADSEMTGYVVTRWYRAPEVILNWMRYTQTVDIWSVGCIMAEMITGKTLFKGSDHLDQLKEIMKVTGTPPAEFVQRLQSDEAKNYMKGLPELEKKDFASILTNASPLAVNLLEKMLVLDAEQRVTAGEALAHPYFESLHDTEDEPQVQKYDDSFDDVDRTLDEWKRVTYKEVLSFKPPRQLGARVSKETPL

[10] = Drug uptake in Sprague-Dawley rat lung homogenate at 0.03 mg/kg, IT measured after 7 hrs by LC/MS/MS analysis; assay type: ADME, organism-based; settings: in vivo, other
[11] = Protein binding in rat plasma at 10 uM incubated for 4 hrs by LC/MS/MS analysis; assay type: ADME, cell-free; settings: read-out: PPB (converted)
[12] = Drug uptake in Sprague-Dawley rat lung homogenate at 0.03 mg/kg, IT measured after 24 hrs by LC/MS/MS analysis; assay type: ADME, organism-based; settings: in vivo, other
[13] = Drug concentration in Sprague-Dawley rat lung homogenate at 0.3 mg/kg, IT measured after 24 hrs by LC/MS/MS analysis; assay type: ADME, organism-based; settings: read-out: Ct
[14] = Inhibition of LPS-stimulated TNFalpha release in human PBMC cells preincubated for 1 hr followed by LPS stimulation and measured after 18 hrs; assay type: functional, cell-based
[15] = Cmax in Sprague-Dawley rat lung homogenate at 0.3 mg/kg, IT measured after 0.8 hrs by LC/MS/MS analysis; assay type: ADME, organism-based; set-up: time 0.8 hrs, dose 0.3 mg/kg, route it
[16] = Efflux ratio of permeability in human Caco-2 cells at 10 uM measured after 60 mins by LC-MS/MS analysis; assay type: ADME, cell-based
[17] = Permeability across apical to basolateral side in human Caco-2 cells at 10 uM measured after 60 mins by LC/MS/MS analysis; assay type: ADME, cell-based; settings: read-out: permeability
[18] = target: Mitogen-activated protein kinase 11 (Homo sapiens, UniProt Q15759); assay: Inhibition of recombinant human full length His-tagged p38beta expressed in baculovirus expression system preincubated for 2 hrs followed by ATP addition and measured after 1 hr by Alpha screen assay
[19] = target: T1, Mitogen-activated protein kinase 14; assay: Displacement of SKF-86002 from human inactivated p38alpha assessed as dissociation half life incubated for 2 hrs by fluorescence based analysis
Rattus norvegicus [20] = assay: Antiinflammatory activity against LPS-induced Sprague-Dawley rat inflammatory model assessed as inhibition of neutrophil cells release in BALF at 0.3 mg/kg, IT incubated for 9 hrs followed by LPS-stimulation relative to control; assay type: functional

T1 sequence (Q16539 whole entry): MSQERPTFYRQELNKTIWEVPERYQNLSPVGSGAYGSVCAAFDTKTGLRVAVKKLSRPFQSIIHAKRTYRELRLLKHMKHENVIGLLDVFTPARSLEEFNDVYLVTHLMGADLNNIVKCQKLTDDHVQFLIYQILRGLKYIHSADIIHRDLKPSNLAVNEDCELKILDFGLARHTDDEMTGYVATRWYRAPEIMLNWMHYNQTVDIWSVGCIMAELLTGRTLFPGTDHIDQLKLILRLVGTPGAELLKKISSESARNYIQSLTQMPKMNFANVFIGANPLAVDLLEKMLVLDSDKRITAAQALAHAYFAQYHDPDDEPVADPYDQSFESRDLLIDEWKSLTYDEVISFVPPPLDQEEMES
Sequence of Mitogen-activated protein kinase 11 (Q15759 whole entry): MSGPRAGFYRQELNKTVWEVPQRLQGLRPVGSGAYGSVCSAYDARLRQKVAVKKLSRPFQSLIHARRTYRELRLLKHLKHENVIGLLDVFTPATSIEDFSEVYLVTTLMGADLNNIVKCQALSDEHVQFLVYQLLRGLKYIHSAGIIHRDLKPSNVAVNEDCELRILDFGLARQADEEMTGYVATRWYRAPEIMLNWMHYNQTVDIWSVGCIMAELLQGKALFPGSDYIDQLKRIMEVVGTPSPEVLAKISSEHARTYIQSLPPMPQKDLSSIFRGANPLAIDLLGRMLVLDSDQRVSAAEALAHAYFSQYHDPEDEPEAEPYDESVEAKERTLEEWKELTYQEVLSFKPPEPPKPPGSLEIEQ

IC50 [3] | IC50 [5] | Cmax [6] | fraction unbound at 4 h, 10 µM [7] | solubility at 0.5 h [8] | IC50 [9] | Drug uptake [10] | fraction unbound at 4 h, 10 µM [11] | Drug uptake [12] | concentration at 24 h [13] | IC50 [14] | Cmax [15] | efflux ratio at 1 h, 10 µM [16] | Papp A→B at 1 h, 10 µM [17] | IC50 [18] | T1/2 [19] | SMILES | Activity (Rattus norvegicus [1]) | Activity (Rattus norvegicus [2]) | Ratio [4] | inhibition in vivo at 0.3 mg/kg (Rattus norvegicus [20])
– | – | – | – | – | – | – | – | – | – | – | – | – | – | – | – | C[C@H]1CCCCN1c1nnc2ccc(O[C@@H]3CC[C@H](NC(=O)Nc4cc(C(C)(C)C)nn4-c4cnn(CCN(C)C)c4)c4ccccc43)cn12.Cl | 55% | 49% | – | –
0.05 nM | > 10000 nM | 0.03 µM | 0.002 | 620 µg/mL (≈ 893 µM) | 805 nM | 10% | 0.004 | 5.4% | 4.58 µM | 0.5 nM | 6.36 µM | > 2.5 | 1.9 ×10⁻⁶ cm/s | 0.1 nM | > 16 h | C[C@@H]1CCC[C@H](C)N1c1nnc2ccc(O[C@@H]3CC[C@H](NC(=O)Nc4cc(C(C)(C)C)nn4-c4cnn(CCN(C)C)c4)c4ccccc43)cn12 | – | – | 183 | 43%
